From ChEMBL document CHEMBL1201862, “PubChem BioAssay data set” (2004)
Values joined by “and” are separate entries in the source; they are usually repeats but may differ in a detail not shown here. Equal entries are not always repeated. Active and inactive are the calls of the source.

Tests used:
Protein skinhead-1 = target: T1, Protein skinhead-1 (Caenorhabditis elegans, UniProt P34707); type: functional
T1 sequence (P34707 whole entry): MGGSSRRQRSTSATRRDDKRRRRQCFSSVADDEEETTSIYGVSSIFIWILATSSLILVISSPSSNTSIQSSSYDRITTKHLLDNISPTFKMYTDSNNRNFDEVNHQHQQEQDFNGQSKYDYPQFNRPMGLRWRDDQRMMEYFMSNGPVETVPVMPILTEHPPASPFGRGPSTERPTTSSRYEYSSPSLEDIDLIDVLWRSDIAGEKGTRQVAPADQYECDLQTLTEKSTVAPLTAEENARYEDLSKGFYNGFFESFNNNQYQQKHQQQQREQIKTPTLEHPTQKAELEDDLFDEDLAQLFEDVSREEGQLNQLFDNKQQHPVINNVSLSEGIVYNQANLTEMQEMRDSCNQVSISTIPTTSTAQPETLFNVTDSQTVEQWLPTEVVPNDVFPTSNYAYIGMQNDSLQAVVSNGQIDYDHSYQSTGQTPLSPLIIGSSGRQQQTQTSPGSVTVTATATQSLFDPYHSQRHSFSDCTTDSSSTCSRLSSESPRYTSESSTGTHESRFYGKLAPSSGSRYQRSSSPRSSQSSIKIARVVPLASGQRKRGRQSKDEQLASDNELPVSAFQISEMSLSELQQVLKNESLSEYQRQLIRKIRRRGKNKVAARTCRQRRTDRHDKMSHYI

Cytochrome P450 1A2 = target: T2, Cytochrome P450 1A2 (Homo sapiens, UniProt P05177);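 further: PubChem cytochrome P450 panel assay, CYP1A2 panel member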
T2 sequence (P05177 whole entry): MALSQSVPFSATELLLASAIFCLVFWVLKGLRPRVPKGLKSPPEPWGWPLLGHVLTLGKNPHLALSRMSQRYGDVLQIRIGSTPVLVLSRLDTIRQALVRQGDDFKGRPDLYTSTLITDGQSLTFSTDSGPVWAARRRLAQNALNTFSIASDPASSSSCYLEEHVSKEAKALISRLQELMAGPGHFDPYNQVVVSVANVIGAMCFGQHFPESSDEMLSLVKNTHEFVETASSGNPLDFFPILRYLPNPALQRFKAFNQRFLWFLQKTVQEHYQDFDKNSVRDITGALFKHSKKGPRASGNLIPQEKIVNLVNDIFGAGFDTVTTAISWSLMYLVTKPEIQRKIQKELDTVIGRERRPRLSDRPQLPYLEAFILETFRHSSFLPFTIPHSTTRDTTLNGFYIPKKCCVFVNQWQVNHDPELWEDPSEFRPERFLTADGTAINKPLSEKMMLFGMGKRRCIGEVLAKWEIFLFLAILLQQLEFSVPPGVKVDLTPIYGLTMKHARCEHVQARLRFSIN

[1] = Luminescence Cell-Based Dose Response HTS to Identify Inhibitors of 5'UTR Stem-Loop Driven Prion Protein mRNA Translation in H4 Neuroglioblastoma Cells. [Related pubchem assays: 1827 (Project Summary), 1813 (Primary HTS)]; type: functional
[2] = inhibitors of firefly luciferase expression or activity, dose response, H4 neuroglioma cells, luminescence (AID 1990); type: functional, cell-based
[3] = inhibitors of SNCA 5'UTR-driven reporter translation, confirmation, H4 neuroglioma cells, luminescence (AID 1988); type: functional, cell-based
Cytochrome P450 3A4 = Cytochrome P450 3A4 (Homo sapiens, UniProt P08684);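 further: CYP3A4 tested as one member of a cytochrome P450 panel screen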
Chain of Cytochrome P450 3A4 (P08684 whole entry): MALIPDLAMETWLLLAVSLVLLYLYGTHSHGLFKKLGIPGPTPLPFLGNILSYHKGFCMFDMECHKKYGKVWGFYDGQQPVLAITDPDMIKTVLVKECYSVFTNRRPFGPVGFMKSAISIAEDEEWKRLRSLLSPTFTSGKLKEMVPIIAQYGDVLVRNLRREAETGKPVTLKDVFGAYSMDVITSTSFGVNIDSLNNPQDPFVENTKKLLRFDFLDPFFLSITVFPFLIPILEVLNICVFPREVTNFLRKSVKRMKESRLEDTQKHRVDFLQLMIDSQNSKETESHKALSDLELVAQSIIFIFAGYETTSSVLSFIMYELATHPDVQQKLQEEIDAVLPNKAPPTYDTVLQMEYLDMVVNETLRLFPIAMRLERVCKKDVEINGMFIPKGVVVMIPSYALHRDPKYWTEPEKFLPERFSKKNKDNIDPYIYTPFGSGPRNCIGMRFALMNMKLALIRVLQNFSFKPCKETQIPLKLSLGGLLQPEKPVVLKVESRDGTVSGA

Cytochrome P450 2D6 = Cytochrome P450 2D6 (Homo sapiens, UniProt P10635);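 further: CYP2D6 member of a cytochrome P450 panel assay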
Chain of Cytochrome P450 2D6 (P10635 whole entry): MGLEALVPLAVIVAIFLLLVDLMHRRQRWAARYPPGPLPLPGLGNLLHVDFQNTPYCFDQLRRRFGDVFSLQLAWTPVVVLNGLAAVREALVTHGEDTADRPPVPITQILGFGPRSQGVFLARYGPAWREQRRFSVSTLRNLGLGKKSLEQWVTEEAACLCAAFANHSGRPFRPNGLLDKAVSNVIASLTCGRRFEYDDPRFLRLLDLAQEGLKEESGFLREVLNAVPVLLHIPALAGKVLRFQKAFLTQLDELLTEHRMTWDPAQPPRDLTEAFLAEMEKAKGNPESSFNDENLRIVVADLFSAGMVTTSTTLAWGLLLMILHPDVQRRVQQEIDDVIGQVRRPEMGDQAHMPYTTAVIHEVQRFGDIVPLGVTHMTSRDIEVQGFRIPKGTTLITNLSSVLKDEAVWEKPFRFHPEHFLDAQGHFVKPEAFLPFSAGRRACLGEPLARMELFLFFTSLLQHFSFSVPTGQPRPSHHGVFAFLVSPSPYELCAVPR

[4] = NIH-3T3 fibroblast cytotoxicity, dose response, cytotoxicity control, cell-based, fluorescence, Alamar Blue, secondary assay (AID 2327); type: functional;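 further: NIH-3T3 mouse fibroblasts cultured with fluconazole at 8 µg/mL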
Cytochrome P450 2C9 = Cytochrome P450 2C9 (Homo sapiens, UniProt P11712)
Chain of Cytochrome P450 2C9 (P11712 whole entry): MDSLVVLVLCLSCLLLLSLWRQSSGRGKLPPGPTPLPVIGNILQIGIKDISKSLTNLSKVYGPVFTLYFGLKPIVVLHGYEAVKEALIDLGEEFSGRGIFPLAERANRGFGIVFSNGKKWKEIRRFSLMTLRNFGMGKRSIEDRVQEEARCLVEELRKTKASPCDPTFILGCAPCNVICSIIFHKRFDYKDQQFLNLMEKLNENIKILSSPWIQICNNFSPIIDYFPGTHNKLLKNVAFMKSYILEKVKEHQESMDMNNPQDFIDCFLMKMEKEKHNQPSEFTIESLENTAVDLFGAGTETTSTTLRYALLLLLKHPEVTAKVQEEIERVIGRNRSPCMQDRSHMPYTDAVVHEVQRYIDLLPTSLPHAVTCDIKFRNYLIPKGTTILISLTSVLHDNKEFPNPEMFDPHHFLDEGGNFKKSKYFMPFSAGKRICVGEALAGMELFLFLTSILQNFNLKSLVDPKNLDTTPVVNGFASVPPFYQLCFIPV

Cytochrome P450 2C19 = Cytochrome P450 2C19 (Homo sapiens, UniProt P33261); experiment: Cytochrome panel assay with activity outcomes. Panel member name: p450-cyp2c19 Compounds with AC50 equal or less than 10 uM are considered active; type: functional
Chain of Cytochrome P450 2C19 (P33261 whole entry): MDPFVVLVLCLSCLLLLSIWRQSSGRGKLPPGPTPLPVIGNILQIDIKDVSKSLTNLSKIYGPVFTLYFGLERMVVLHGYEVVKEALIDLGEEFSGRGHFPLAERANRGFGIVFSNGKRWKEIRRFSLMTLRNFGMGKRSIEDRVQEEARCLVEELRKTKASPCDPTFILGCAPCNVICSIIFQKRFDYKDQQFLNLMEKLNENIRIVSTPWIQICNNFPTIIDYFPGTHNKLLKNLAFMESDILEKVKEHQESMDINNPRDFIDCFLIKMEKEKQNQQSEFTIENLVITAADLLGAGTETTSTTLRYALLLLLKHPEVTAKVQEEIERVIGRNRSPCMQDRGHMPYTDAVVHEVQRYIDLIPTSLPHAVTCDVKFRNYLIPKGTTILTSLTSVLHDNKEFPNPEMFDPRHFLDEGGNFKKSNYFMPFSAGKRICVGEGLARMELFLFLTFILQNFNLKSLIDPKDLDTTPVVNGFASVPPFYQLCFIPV

[5] = target: T3, Heat shock factor protein 1 (Mus musculus, UniProt P38532); experiment: inhibition of MG132-induced HSE-luciferase signal, confirmation, cell-based, NIH3T3, luminescence, dose retest (AID 2382); type: functional;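 further: NIH3T3 fibroblasts with HSF1-driven luciferase reporter stressed by proteasome inhibitor MG132; luminescence from HSF1-driven luciferase expression after 8 hours of MG132 stress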
T3 sequence (P38532 whole entry): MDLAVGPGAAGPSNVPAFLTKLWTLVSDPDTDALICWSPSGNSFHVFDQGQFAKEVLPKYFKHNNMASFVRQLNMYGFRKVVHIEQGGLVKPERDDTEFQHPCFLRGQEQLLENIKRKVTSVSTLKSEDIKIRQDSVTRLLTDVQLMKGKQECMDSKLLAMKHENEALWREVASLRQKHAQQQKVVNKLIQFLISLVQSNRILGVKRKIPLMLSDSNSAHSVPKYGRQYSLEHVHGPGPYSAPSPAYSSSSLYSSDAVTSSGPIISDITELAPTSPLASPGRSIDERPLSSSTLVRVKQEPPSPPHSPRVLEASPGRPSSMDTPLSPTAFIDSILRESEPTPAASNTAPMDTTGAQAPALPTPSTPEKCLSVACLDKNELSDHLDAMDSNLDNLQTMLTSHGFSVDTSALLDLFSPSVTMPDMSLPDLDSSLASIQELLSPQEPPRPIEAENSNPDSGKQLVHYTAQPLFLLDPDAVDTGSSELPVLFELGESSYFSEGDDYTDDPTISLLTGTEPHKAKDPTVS

Question: With Cc1cc(C)n(CC(O)Cn2c(C)c(C)c3ccccc32)n1 (stereo unspecified) as the compound, how does the IC50 (Protein skinhead-1) read?
Answer: > 100 µM (inactive)

Question: For O=C(CSc1nnnn1-c1ccccc1)NCc1cccs1, which AC50 (Cytochrome P450 1A2) is on record?
Answer: 31.6 µM (inconclusive)

Question: Which results are given for N#C/C=C1\n2c(nc3ccccc32)OC12CCCCC2?
Answer: EC50 [1]: > 120 µM (not active); EC50 [2]: > 120 µM (not active); EC50 [3]: > 120 µM (not active)

Question: Which AC50 (Cytochrome P450 3A4) does the source give for CCNc1ncc2nc(-c3cccc(C#N)c3)c(=O)n(C)c2n1 here?
Answer: 31.6 µM (inconclusive)

Question: What about the AC50 (Cytochrome P450 2D6) of the same compound?
Answer: 2 µM (inconclusive)

Question: With Cn1cccc1C(=O)N1CCC2(CCCN(Cc3ccc(C#N)cc3)C2)CC1 as the compound, how does the AC50 (Cytochrome P450 1A2) read?
Answer: 12.6 µM (inconclusive)

Question: What about the AC50 (Cytochrome P450 3A4) of the same compound?
Answer: 15.8 µM (inconclusive)

Question: Which IC50 (Protein skinhead-1) does the source give for c1ccc(CSc2nnc(-c3cccs3)o2)cc1 here?
Answer: 30.2 µM (active)

Question: For Cc1ccc(CSc2nc3c(c(=O)[nH]c(=O)n3C)n2CCC(C)C)cc1, which EC50 [1] is on record?
Answer: 19.4 µM (active)

Question: And the EC50 [2]?
Answer: 24.8 µM (active)

Question: And the EC50 [3]?
Answer: 16.2 µM (active)

Question: With CN(C)c1ccc(/N=C/c2cccn2C)cc1 as the compound, how does the EC50 [4] read?
Answer: 25.9 µM (active)

Question: With Nc1nnnn1CCO as the compound, how does the AC50 (Cytochrome P450 1A2) read?
Answer: 6.31 µM (inconclusive)

Question: Which AC50 (Cytochrome P450 1A2) does the source give for COC(=O)CCC(=O)NNC(=O)c1ccc(Br)cc1 here?
Answer: 11.2 µM (inconclusive)

Question: Which results are given for C[C@H](N)C1CCC(C(=O)Nc2ccncc2)CC1 (stereo partly specified)?
Answer: AC50 (Cytochrome P450 3A4): 15.8 µM (inconclusive); AC50 (Cytochrome P450 2D6): 15.8 µM (inconclusive)

Question: For CCOc1c2ccc(C(=O)NCc3ccc(OC(F)(F)F)cc3)cc2nn1CC, which AC50 (Cytochrome P450 1A2) is on record?
Answer: 14.1 µM (inconclusive)

Question: What about the AC50 (Cytochrome P450 2C9) of the same compound?
Answer: 39.8 µM (inconclusive)

Question: And the AC50 (Cytochrome P450 2D6)?
Answer: 25.1 µM (inconclusive)

Question: What about the AC50 (Cytochrome P450 2C19; read-out: AC50) of the same compound?
Answer: 39.8 µM (inconclusive)

Question: Which IC50 (Protein skinhead-1) does the source give for Cc1c(C)n(C)c2ccc(C(=O)NCCN3CCOCC3)cc12 here?
Answer: > 100 µM (inactive)

Question: With O=C(Nc1ccccc1N1CCOCC1)c1ccc(S(=O)(=O)NCc2ccco2)cc1 as the compound, how does the EC50 [4] read?
Answer: > 150 µM (inactive)

Question: With O=C1COc2ccc(OCc3ccc(F)cc3)cc21 as the compound, how does the AC50 (Cytochrome P450 1A2) read?
Answer: 7.08 µM (inconclusive)

Question: Which AC50 (Cytochrome P450 1A2) does the source give for O=C(OCCN1CCOCC1)C1(c2ccccc2)CCCCC1 here?
Answer: 31.6 µM (inconclusive)

Question: What about the AC50 (Cytochrome P450 2C9) of the same compound?
Answer: 10 µM (inconclusive) and 15.8 µM (inconclusive)

Question: And the AC50 (Cytochrome P450 2D6)?
Answer: 12.6 µM (inconclusive) and 6.31 µM (inconclusive)

Question: What about the AC50 (Cytochrome P450 2C19; read-out: AC50) of the same compound?
Answer: 6.31 µM (inconclusive) and 10 µM (inconclusive)

Question: With O=C(O)c1cc(-c2cccc3ccccc23)nc2ccccc12 as the compound, how does the IC50 (Protein skinhead-1) read?
Answer: > 100 µM (inactive)

Question: What about the EC50 [5] of the same compound?
Answer: > 195 µM (not active)

Question: With COc1cccc(Nc2ncc3nc(-c4cn(C)c5ccccc45)c(=O)n(CCC#N)c3n2)c1 as the compound, how does the AC50 (Cytochrome P450 1A2) read?
Answer: 20 µM (inconclusive)

Question: What about the AC50 (Cytochrome P450 3A4) of the same compound?
Answer: 1.58 µM (inconclusive)

Question: What does the source list for c1ccc(CN2CC[C@@]3(CCCNC3)C2)cc1?
Answer: AC50 (Cytochrome P450 3A4): 10 µM (inconclusive); AC50 (Cytochrome P450 2D6): 15.8 µM (inconclusive)

Question: What does the source list for Cc1ccc(S(=O)(=O)N2CCCC(C(=O)NCCCN3CCCCC3C)C2)cc1 (stereo unspecified)?
Answer: AC50 (Cytochrome P450 2D6): 17.8 µM (inconclusive); AC50 (Cytochrome P450 2C19): inconclusive

Question: Which IC50 (Protein skinhead-1) does the source give for CCc1nnc(NC(=O)CSc2nnc(COc3cccc(C)c3)o2)s1 here?
Answer: > 100 µM (inactive)

Question: With COc1ccc(C(=O)N2CCC3(CC2)CN(Cc2ccc(C#N)cc2)C3)cc1 as the compound, how does the AC50 (Cytochrome P450 3A4) read?
Answer: 0.631 µM (inconclusive)

Question: And the AC50 (Cytochrome P450 2D6)?
Answer: 12.6 µM (inconclusive)

Question: With CCn1c(SCC(=O)Nc2ccc(NC(=O)c3cccs3)cc2)nnc1-c1cccnc1 as the compound, how does the IC50 (Protein skinhead-1) read?
Answer: > 100 µM (inactive)

Question: Which IC50 (Protein skinhead-1) does the source give for O=C(NCc1nnc(S)n1-c1ccc(F)cc1)c1ccc(S(=O)(=O)N2CCOCC2)cc1 here?
Answer: > 100 µM (inactive)

Question: Which results are given for Cc1cnc(CNc2ncnc3ccc(-c4ccccc4C(F)(F)F)cc23)cn1?
Answer: AC50 (Cytochrome P450 2D6): 25.1 µM (inconclusive); AC50 (Cytochrome P450 2C19; read-out: AC50): 20 µM (inconclusive)

Question: Which results are given for CC(=O)N1CCC2(CCCN(Cc3cc(C(F)(F)F)cc(C(F)(F)F)c3)C2)CC1?
Answer: AC50 (Cytochrome P450 3A4): 15.8 µM (inconclusive); AC50 (Cytochrome P450 2D6): 39.8 µM (inconclusive)

Question: What does the source list for O=C(COC(=O)c1cccc(S(=O)(=O)N2CCOCC2)c1)Nc1nc(-c2ccccc2Cl)cs1?
Answer: AC50 (Cytochrome P450 1A2): 8.91 µM (inconclusive); AC50 (Cytochrome P450 3A4): 11.2 µM (inconclusive)

Question: For CCN(CC)S(=O)(=O)c1cccc(-c2nnc(SCC(=O)c3cc(C)n(C4CC4)c3C)o2)c1, which IC50 (Protein skinhead-1) is on record?
Answer: > 100 µM (inactive)

Question: Which AC50 (Cytochrome P450 2C9) does the source give for O=C(NC1(C(F)(F)F)NC(=O)N(Cc2cccnc2)C1=O)c1ccccc1 (stereo unspecified) here?
Answer: 17.8 µM (inconclusive)

Question: What about the EC50 [1] of the same compound?
Answer: > 120 µM (not active)

Question: And the AC50 (Cytochrome P450 3A4)?
Answer: 0.891 µM (inconclusive)

Question: What about the EC50 [2] of the same compound?
Answer: > 120 µM (not active)

Question: And the EC50 [3]?
Answer: > 120 µM (not active)

Question: For Cc1ccc(-c2[nH]ncc2/C=C(\C#N)C(=O)NC2CCCCC2)cc1, which EC50 [1] is on record?
Answer: 71.5 µM (active)

Question: What about the IC50 (Protein skinhead-1) of the same compound?
Answer: > 100 µM (inactive)

Question: What about the EC50 [3] of the same compound?
Answer: > 120 µM (not active)

Question: Which AC50 (Cytochrome P450 1A2) does the source give for O=C(NCC1CCCO1)c1nn2c(c1Cl)NC(c1ccc(F)cc1)CC2C(F)(F)F (stereo unspecified) here?
Answer: 12.6 µM (inconclusive)

Question: What about the AC50 (Cytochrome P450 3A4) of the same compound?
Answer: 14.1 µM (inconclusive)

Question: With O=C(CSc1c[nH]c2ccccc12)N1CCOCC1 as the compound, how does the AC50 (Cytochrome P450 1A2) read?
Answer: 17.8 µM (inconclusive)

Question: What does the source list for CC(=O)Nc1nnc(CCN2CCCCC2)s1?
Answer: AC50 (Cytochrome P450 2D6): 1.26 µM (inconclusive); AC50 (Cytochrome P450 2C19): inconclusive

Question: With Brc1ccc(CSc2nnc(-c3cccnc3)o2)cc1 as the compound, how does the IC50 (Protein skinhead-1) read?
Answer: 54.5 µM (inactive)

Question: Which results are given for CN(Cc1ccc(-n2cccn2)cc1)C(=O)c1cnn2c1NC(c1ccco1)CC2C(F)(F)F (stereo unspecified)?
Answer: EC50 [1]: > 120 µM (not active); EC50 [2]: > 120 µM (not active); EC50 [3]: 31.5 µM (active)
